# Test results as given in ChEMBL document CHEMBL1122719, “Steroids. 2. Synthesis of C-18 functionalized steroids via the Smith-Hughes route” (J Med Chem, 1984).
# Molecular target: Estrogen receptor (Rattus norvegicus, UniProt P06211+Q62986)
# Assay: Equilibrium dissociation constant for rat uterine estrogen receptor binding [3H]estradiol
# Format: protein assay
row,Structure (SMILES),Kd [nM]
1,OC[C@@]12CCC[C@H]1[C@@H]1CCc3cc(O)ccc3[C@H]1CC2,310
2,C#C[C@]1(O)CC[C@H]2[C@@H]3CCC4=CC(=O)CC[C@@H]4[C@H]3CC[C@@]21C [NORETHINDRONE],0.63

# Molecular target: T1, Progesterone receptor (Gallus gallus) (UniProt P07812)
# T1 sequence (whole entry): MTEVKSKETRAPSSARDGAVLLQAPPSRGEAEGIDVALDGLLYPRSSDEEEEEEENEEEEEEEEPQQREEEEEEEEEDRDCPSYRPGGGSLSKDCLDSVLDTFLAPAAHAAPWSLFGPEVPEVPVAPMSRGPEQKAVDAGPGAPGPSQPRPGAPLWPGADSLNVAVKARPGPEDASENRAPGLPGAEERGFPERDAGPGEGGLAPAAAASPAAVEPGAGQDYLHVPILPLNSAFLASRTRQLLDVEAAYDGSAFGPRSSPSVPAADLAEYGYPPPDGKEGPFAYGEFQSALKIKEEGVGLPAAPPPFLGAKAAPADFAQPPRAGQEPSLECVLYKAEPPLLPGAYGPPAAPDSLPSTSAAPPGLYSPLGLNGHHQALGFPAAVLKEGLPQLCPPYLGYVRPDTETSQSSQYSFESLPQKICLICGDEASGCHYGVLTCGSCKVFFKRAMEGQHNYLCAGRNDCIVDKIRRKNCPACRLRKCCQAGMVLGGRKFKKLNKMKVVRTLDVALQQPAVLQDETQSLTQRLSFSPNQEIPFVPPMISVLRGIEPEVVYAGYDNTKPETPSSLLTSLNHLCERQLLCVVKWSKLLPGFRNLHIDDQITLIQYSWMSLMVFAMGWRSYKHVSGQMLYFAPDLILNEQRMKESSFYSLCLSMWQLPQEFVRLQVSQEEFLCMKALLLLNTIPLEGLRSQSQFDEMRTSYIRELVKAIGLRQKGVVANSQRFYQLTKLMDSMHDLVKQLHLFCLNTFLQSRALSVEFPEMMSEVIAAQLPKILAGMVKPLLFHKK
# Assay: In vitro displacement of progesterone from oviduct progesterone receptor relative to progesterone
row,Structure (SMILES),Relative binding affinity [%]
1,CC(=O)C[C@@]12CCC[C@H]1[C@@H]1CCC3=CC(=O)CC[C@@H]3[C@H]1CC2,2
2,C#C[C@@H](O)C12CCCC1C1CCC3=CC(=O)CC[C@@H]3C1CC2 (stereo partly drawn),0.6
3,CC(=O)[C@H]1CC[C@H]2[C@@H]3CCC4=CC(=O)CC[C@]4(C)[C@H]3CC[C@]12C,100
4,C#C[C@@H](O)C12CCCC1C1CCC3=CC(=O)CC[C@@H]3C1CC2.C#C[C@H](O)C12CCCC1C1CCC3=CC(=O)CC[C@@H]3C1CC2 (stereo partly drawn),3.1
5,C#C[C@]1(O)CC[C@H]2[C@@H]3CCC4=CC(=O)CC[C@@H]4[C@H]3CC[C@@]21C [NORETHINDRONE],350
6,CC(=O)OC(C(C)=O)[C@@]12CCC[C@H]1[C@@H]1CCC3=CC(=O)CC[C@@H]3[C@H]1CC2 (stereo partly drawn),0.1
